Measured values reported in publication PMC6895199, “A new antiviral scaffold for human norovirus identified with computer-aided approaches on the viral polymerase” (Scientific Reports, 2019).
Values joined by “and” are separate entries in the source; they are usually repeats but may differ in a detail not shown here. Equal values may be shown once. Read-outs that look alike come from different tables or passages of the source.

Legend:
HuNoV (GII.4) RdRp = experiment: Counter-screen gel-shift assay of primed elongation activity (PE44-NoV template); assay type: biochemical, human norovirus; details: fixed concentration of 100 μM
Method: To further confirm RdRp inhibition and exclude any potential false positives from the first fluorescence RdRp assay, the eight molecules were then assessed using a gel-shift enzyme activity assay at a fixed concentration of 100 μM, following a procedure previously adopted by our research group.
Figure 5 A counter-screen gel-shift assay was used to confirm HuNoV (GII.4) RdRp inhibitory activity of compounds 2, 3, 34 and 35 (A), 4, 5, 6 (B) and 7 (C). The eight compounds were examined for inhibition of primed elongation activity. PE44-NoV RNA templates (32 nucleotides) were extended (44 nucleotides) by the RdRp in the absence of any test compounds (0.5% DMSO [vol/vol] negative control) or with test compounds at a fixed concentration of 100 μM. […] Full-length gels are presented in Supplementary Fig. S3.
Fluorescent RdRp activity assays were carried out as previously described[12],[29]. Briefly, RdRp activity was quantified by monitoring the formation of double-stranded RNA (dsRNA) from a single stranded homopolymeric template, poly(C) (Sigma Aldrich), using the fluorescent dye PicoGreen (Life Technologies, Carlsbad, CA, USA). RdRp assays were performed in 384-well plates, and each reaction mixture contained 400 ng enzyme, 45 μM GTP, 10 ng/μL poly(C) RNA, 2.5 mM MnCl2, 5 mM dithiothreitol, (DTT), 0.01% bovine serum albumin (BSA), and 0.005% Tween 20 in 20 mM Tris-HCl, pH 7.5, with a final reaction volume of 25 μL. The PPNDS and compound 1 were used as a positive controls. RdRps were incubated for 10 mins at 30 °C in the presence of the test compounds or the compound vehicle DMSO (0.5% vol/vol) before addition into the reaction mixture, which was then allowed to run 15 min at 30 °C then terminated with 10 mM EDTA, followed by PicoGreen staining and dsRNA quantitation. GraphPad Prism V6.05 (La Jolla, CA, USA) was used to plot the IC50 values. A secondary gel-based polymerase activity assay was used as a counter-screen as described below, to exclude the possibility of RdRp activity enhancement. Primed elongation activity was examined in a gel-based assay as previously described[12],[29] using the RNA template (PE44-NoV). Gels were imaged using BioRad (Hercules, CA, U.SA) Geldoc Universal Hood II, running BioRad Image Lab software, V4.1, build 16.

[1] = similar MNV cell-based assay; cited from earlier work
[2] = Crystal formation seen in the cell-based assays; assay type: physicochemical; details: observed with the HuNoV GI replicon results
[3] = Cytotoxicity by the MTS method on uninfected cells; assay type: cell-based; details: mouse, uninfected RAW 264.7 cells, Table 2, at least three independent experiments
Method: Cytotoxicity: The cytotoxicity of the Compounds was evaluated by the MTS method, by exposing uninfected cells to the same concentrations of compounds for 3 days. The %cell viability was calculated as (ODtreated/ODCC) × 100, where ODCC is the OD of uninfected untreated cells and ODtreated are uninfected cells treated with compound. The CC50 was defined as the compound concentration that reduces the number of viable cells by 50%[34].

MNV = MNV CPE reduction assay (MTS) in RAW 264.7 cells; assay type: cell-based, mouse norovirus (MNV-1.CW1); details: Norovirus, RAW264.7, in Mus musculus, Table 2, RAW 264.7, range 0.6–100 µM, at least three independent experiments
In short: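 MNV-1.CW1-infected RAW 264.7 cells treated at eight concentrations (0.6–100 µM), 2′-C-methylcytidine as positive control. Viability read by MTS/PMS at OD 498 nm after 2 h; %CPE reduction normalised to uninfected and infected untreated cells, EC50 = concentration protecting 50% of cells from virus-induced CPE.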

HuNoV GI.1 replicon = experiment: HuNoV GI replicon assay (HGT-NV cells, qRT-PCR); assay type: cell-based, human norovirus GI.1
Method: Given that in this system the gene encoding for the major capsid protein is replaced by a neomycin resistance gene, no new virus particles will be produced but the non-structural proteins are expressed and the replication of the genomic RNA can be studied.
Cells and virus: MNV (virus strain MNV-1.CW1) was propagated in RAW 264.7 cells grown in DMEM (Life Technologies, Gent, Belgium) supplemented with 10% or 2% FBS, 2 mM L-glutamine, 20 mM HEPES, 0.075 g/L sodium bicarbonate, 1 mM sodium pyruvate, 100 U penicillin/mL and 100 µg/mL streptomycin at 37 °C in a humidified atmosphere of 5% CO2. The human norovirus GI.1 replicon harboring gastric tumor-1 cell line (HGT-NV) (kindly provided by Dr. Ian Goodfellow, University of Cambridge) was maintained in DMEM supplemented with 10% FBS, 2mM L-glutamine, 0.075 g/L sodium bicarbonate and 1.0 mg/ml of Geneticin (G418; Life Technologies), at 37 °C in a humidified atmosphere of 5% CO2[34].
Antiviral assay with the HGT-NV replicon: The inhibitory effect of Compounds on human norovirus replication was assessed by quantification of the levels of HuNoV GI replicon RNA and of the reference (housekeeping) gene β-actin mRNA [by quantitative reverse transcription polymerase chain reaction (qRT-PCR)]. To this end, HGT cells (2000 cells/well) were seeded in 96-well plates, in complete DMEM without the selection marker G418. Following an incubation period of 24 h, a serial dilution of rupintrivir was added to the cultures. After 72 h of incubation, cell monolayers were washed with phosphate-buffered saline (PBS) and collected for quantification of RNA load by qRT-PCR. Intracellular RNA was extracted from cells using the cell-to-cDNA lysis buffer (Ambion, Life Technologies). For detection of HuNoV GI replicon RNA, forward (5′-CCG GCT ACC TGC CCA TTC-3′), reverse (5′-CCAGATCATCCTGATCGACAAG-3′) primers and probe (5′-FAM-ACATCGCATCGAGCGAGCACGTAC-TAMRA-3′) for the neomycin gene were used. For detection of β-actin mRNA, forward (5′-GGCATCCACGAAACTACCTT-3′), reverse (5′-AGCACTGTGTTGGCGTACAG-3′) primers and probe (5′-HEX-ATCATGAAGTGTGACGTGGACATCCG-BHQ1–3′) were used. One-step qRT-PCR was performed in a 20 µL reaction mixture containing 10 µl 2X iTaq Universal SYBR® Green one step reaction mix (Bio-rad, California, USA), 5.17 µl RNAse free water, 0.5 µl of iScript reverse transcriptase (Bio-rad, California, USA), 4 µl of the template RNA and either 300 nM of HuNoV GI replicon primers and probe, 300 nM of β-actin primers and 200 nM of probe. Cycling conditions were: reverse transcription at 50 °C for 10 min, initial denaturation at 95 °C for 3 min, followed by 40 cycles of denaturation at 95 °C for 15 s, annealing and extension at 60 °C for 30 seconds (Roche Lightcycler®96, Roche Diagnostics, Belgium). To determine the relative expression levels of HuNoV GI replicon RNA, β-actin was used as a normalizer and ratios were calculated using the Pfaffl method. The Expression Ratio (HuNoV GI Replicon/β-actin) was calculated as: Expression Ratio = (E HuNoV)^ΔCT, HuNoV (CC – TC)/(Eβ-actin)^ΔCT, β-actin (CC – TC), where E HuNoV and Eβ-actin represent the amplification efficiency (E = 10^–1/slope) for the HuNoV GI replicon and β-actin qRT-PCR reactions, respectively. ΔCT, HuNoV (CC – TC) is the Ct of untreated control cells (CC) minus the Ct of cells treated with a compound concentration (TC) obtained with HuNoV GI replicon primers and probe. ΔCT, β-actin (CC – TC) is the Ct of untreated control cells (CC) minus the Ct of cells treated with a compound concentration (TC) obtained with β-actin primers and probe. Efficiency values (E HuNoV and Eβ-actin) were determined for each qRT-PCR reaction.

O=C1NN(c2ccccc2)C(=O)/C1=C/c1ccc(-c2ccc(S(=O)(=O)Nc3ccccc3)cc2)o1 [Compound 1]
inhibition of primed elongation activity (gel-shift) (HuNoV (GII.4) RdRp): complete inhibition
CC50 [1]: ~64 µM and 62.8 µM

O=C(NC(=S)Nc1ccc(N2CCN(S(=O)(=O)c3ccccc3)CC2)cc1)c1ccccc1 [Compound 60, N-((4-(4-(Phenylsulfonyl)piperazin-1-yl)phenyl)carbamothioyl)benzamide]
concentration from which crystals form [2]: ≥ 25 µM
CC50 at 3 days [3]: > 100 µM
EC50 (MNV): 66.6 ± 12.3 µM
EC50 values (column head printed 'M') (HuNoV GI.1 replicon; HuNoV GI replicon in HGT-1 cells, 72 h, replicon RNA by qRT-PCR): low micromolar range
EC50 (HuNoV GI.1 replicon; Norwalk virus, HGT-1, 72 h, read-out: EC50 values (column head printed 'M'), HuNoV GI replicon in HGT-1 cells, replicon RNA by qRT-PCR): 8 µM
EC50 (HuNoV GI.1 replicon; read-out: EC50 values (column head printed 'M'), HuNoV GI replicon in HGT-1 cells, 72 h, replicon RNA by qRT-PCR): 8.5 ± 2.1 µM
